Experimental data as given in patent publication US20250018047A1, “METHODS AND COMPOSITIONS FOR TARGETED PROTEIN DEGRADATION” (Ranok Therapeutics (Hangzhou) Co. Ltd., priority 2021, published 2025).
pIC50: −log10 of the molar value. Structures can show the parent of a compound that is named as a salt.

Tests used:
KRAS(G12D)/SOS1 = target: T1, KRAS(G12D)/SOS1 (Homo sapiens, UniProt P01116, G12D); experiment: KRAS(G12D)/SOS1 homogeneous time-resolved fluorescence (HTRF) assay; assay type: binding; settings: absence of GTP, 4° C. for 3 hr
T1 construct: purchased Cisbio 63ADK000CB16PEG
Description: The test compound was mixed and incubated with reaction components, incubated in a sealed plate at 4° C. for 3 hr and fluorescence was measured using a PerkinElmer Envision plate reader.

[1] = test system: AsPC-1 human pancreatic adenocarcinoma; experiment: CellTiter-Glo cancer cell line proliferation assay, AsPC-1; assay type: cell-based; settings: Homo sapiens, ASPC1, 24 hr
Procedure, shortened: (§1)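 Cells plated at 4,000/well, grown 24 h at 37 °C/5% CO2, then exposed to compound concentration series (0.5% DMSO final) for 24 h. Viability read by CellTiter-Glo luminescence; IC50 values calculated.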

[2] = test system: A-427 human lung carcinoma; experiment: CellTiter-Glo cancer cell line proliferation assay, A-427; assay type: cell-based; settings: Homo sapiens, A-427, 24 hr, read-out: A427 at 24 hrs, IC50
Procedure, shortened: as §1

[3] = target: BA/F3-KRAS(G12D) murine pro-B cell line stably expressing KRAS(G12D) (Homo sapiens, UniProt P01116, G12D, cells depend on it); experiment: CellTiter-Glo cancer cell line proliferation assay, BA/F3-KRAS(G12D); assay type: cell-based; settings: 24 hr, read-out: BAF3 at 24 hrs, IC50
Description: The following cancer cell lines were employed: AsPC-1 human pancreatic adenocarcinoma (ATCC, #CRL-1682); A-427 human lung carcinoma (ATCC, #HTB-53); BA/F3-KRAS(G12D) murine pro-B cell line stably expressing KRAS(G12D) (Precedo, Hefei, China). Cell lines were cultured according to ATCC and recommendations. BA/F3-KRAS(G12D) cells were cultured in RPMI 1640 media with 10% fetal calf serum, 100 units/mL penicillin and […] streptomycin, and 1% glutamine.
CellTiter-Glo® Reagent Cancer Cell Line Proliferation Assays
Cells were plated in 96-well tissue culture plates at 4,000 cells/well and incubated at 37° C./5% CO2 for 24 hr in 100 μl of media. 3-fold serial dilutions of each test compound were prepared ranging from 20 μM to 1.02 nM. Cells were then treated with test compounds at various concentrations with a final concentration of 0.5% DMSO/well, and then incubated at 37° C./5% CO2 for 24 hr. 100 μl of CellTiter-Glo® Reagent (Promega Corporation, Madison, WI) was added to each well and processed according manufacturer's protocol. Results were analyzed and IC50-values were calculated in GraphPad 7 software.

Chain of BA/F3-KRAS(G12D) murine pro-B cell line stably expressing KRAS(G12D) (P01116 whole entry G12D): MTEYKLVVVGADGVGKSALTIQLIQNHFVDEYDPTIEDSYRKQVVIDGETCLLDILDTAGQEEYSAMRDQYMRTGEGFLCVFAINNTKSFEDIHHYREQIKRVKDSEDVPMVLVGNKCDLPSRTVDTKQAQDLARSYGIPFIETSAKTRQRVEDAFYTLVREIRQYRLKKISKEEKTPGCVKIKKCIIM
T1 sequence (P01116 1-188 isoform P01116-2 G12D): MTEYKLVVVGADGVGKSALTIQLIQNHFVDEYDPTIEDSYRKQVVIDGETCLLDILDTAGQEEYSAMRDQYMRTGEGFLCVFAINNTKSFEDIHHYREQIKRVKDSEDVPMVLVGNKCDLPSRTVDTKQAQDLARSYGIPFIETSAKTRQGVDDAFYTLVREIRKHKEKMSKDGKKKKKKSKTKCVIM

Structure (SMILES)	pIC50 (KRAS(G12D)/SOS1)	pIC50 [1]	pIC50 [2]	GI50 [3] [µM]
C#Cc1cccc2cccc(-c3ncc4c(N5CC6CCC(C5)N6)nc(OC[C@@H]5C[C@H](N6CCN(CC7CCN(c8ccc9c(c8)C(=O)N(C8CCC(=O)NC8=O)C9=O)CC7)CC6)CN5C)nc4c3F)c12 (stereo partly drawn) [Compound 5, 5-(4-((4-((3S,5S)-5-(((4-(3,8-diazabicyclo[3.2.1]octan-3-yl)-7-(8-ethynylnaphthalen-1-yl)-8-fluoropyrido[4,3-d]pyrimidin-2-yl)oxy)methyl)-1-methylpyrrolidin-3-yl)piperazin-1-yl)methyl)piperidin-1-yl)-2-(2,6-dioxopiperidin-3-yl)isoindoline-1,3-dione hydrochloride]	> 7.00	< 6.00	< 6.00	0.1 to 1
C#Cc1cccc2cccc(-c3ncc4c(N5CC6CCC(C5)N6)nc(OC[C@@H]5C[C@H](N6CCN(CC7CCN(c8cccc9c8C(=O)N(C8CCC(=O)NC8=O)C9=O)CC7)CC6)CN5C)nc4c3F)c12 (stereo partly drawn) [Compound 6, 4-(4-((4-((3S,5S)-5-(((4-(3,8-diazabicyclo[3.2.1]octan-3-yl)-7-(8-ethynylnaphthalen-1-yl)-8-fluoropyrido[4,3-d]pyrimidin-2-yl)oxy)methyl)-1-methylpyrrolidin-3-yl)piperazin-1-yl)methyl)piperidin-1-yl)-2-(2,6-dioxopiperidin-3-yl)isoindoline-1,3-dione hydrochloride]	> 7.00	< 6.00	< 6.00	> 1
C#Cc1cccc2cccc(-c3ncc4c(N5CC6CCC(C5)N6)nc(OC[C@@H]5C[C@H](N6CCN(Cc7ccc8c(c7)C(=O)N(C7CCC(=O)NC7=O)C8=O)CC6)CN5C)nc4c3F)c12 (stereo partly drawn) [Compound 7, 5-((4-((3S,5S)-5-(((4-(3,8-diazabicyclo[3.2.1]octan-3-yl)-7-(8-ethynylnaphthalen-1-yl)-8-fluoropyrido[4,3-d]pyrimidin-2-yl)oxy)methyl)-1-methylpyrrolidin-3-yl)piperazin-1-yl)methyl)-2-(2,6-dioxopiperidin-3-yl)isoindoline-1,3-dione formate]	> 7.00	< 6.00	< 6.00	> 1
C#Cc1cccc2cccc(-c3ncc4c(N5CC6CCC(C5)N6)nc(OC[C@@H]5C[C@H](N6CCN(C(=O)C7CCN(c8ccc9c(c8)C(=O)N(C8CCC(=O)NC8=O)C9=O)CC7)CC6)CN5C)nc4c3F)c12 (stereo partly drawn) [Compound 8, 5-(4-(4-((3S,5S)-5-(((4-(3,8-diazabicyclo[3.2.1]octan-3-yl)-7-(8-ethynylnaphthalen-1-yl)-8-fluoropyrido[4,3-d]pyrimidin-2-yl)oxy)methyl)-1-methylpyrrolidin-3-yl)piperazine-1-carbonyl)piperidin-1-yl)-2-(2,6-dioxopiperidin-3-yl)isoindoline-1,3-dione hydrochloride]	> 7.00	< 6.00	< 6.00	> 1
CN1C[C@@H](N2CCC(C(=O)N3CCN(c4ccc5c(c4)C(=O)N(C4CCC(=O)NC4=O)C5=O)CC3)CC2)C[C@H]1COc1nc(N2CC3CCC(C2)N3)c2cnc(-c3cccc4cccc(Cl)c34)c(F)c2n1 (stereo partly drawn) [Compound 9, 5-(4-(1-((3S,5S)-5-(((4-(3,8-diazabicyclo[3.2.1]octan-3-yl)-7-(8-chloronaphthalen-1-yl)-8-fluoropyrido[4,3-d]pyrimidin-2-yl)oxy)methyl)-1-methylpyrrolidin-3-yl)piperidine-4-carbonyl)piperazin-1-yl)-2-(2,6-dioxopiperidin-3-yl)isoindoline-1,3-dione hydrochloride]	> 7.00	< 6.00	< 6.00	> 1
CN1C[C@@H](N2CCC(C(=O)Nc3ccc4c(c3)C(=O)N(C3CCC(=O)NC3=O)C4=O)CC2)C[C@H]1COc1nc(N2CC3CCC(C2)N3)c2cnc(-c3cccc4cccc(Cl)c34)c(F)c2n1 (stereo partly drawn) [Compound 10, 1-((3S,5S)-5-(((4-(3,8-diazabicyclo[3.2.1]octan-3-yl)-7-(8-chloronaphthalen-1-yl)-8-fluoropyrido[4,3-d]pyrimidin-2-yl)oxy)methyl)-1-methylpyrrolidin-3-yl)-N-(2-(2,6-dioxopiperidin-3-yl)-1,3-dioxoisoindolin-5-yl)piperidine-4-carboxamide formate]	> 7.00	< 6.00	< 6.00	> 1
CN1C[C@@H](N2CCC(C(=O)NCCOCCOc3ccc4c(c3)C(=O)N(C3CCC(=O)NC3=O)C4=O)CC2)C[C@H]1COc1nc(N2CC3CCC(C2)N3)c2cnc(-c3cccc4cccc(Cl)c34)c(F)c2n1 (stereo partly drawn) [Compound 11, 1-((3S,5S)-5-(((4-(3,8-diazabicyclo[3.2.1]octan-3-yl)-7-(8-chloronaphthalen-1-yl)-8-fluoropyrido[4,3-d]pyrimidin-2-yl)oxy)methyl)-1-methylpyrrolidin-3-yl)-N-(2-(2-((2-(2,6-dioxopiperidin-3-yl)-1,3-dioxoisoindolin-5-yl)oxy)ethoxy)ethyl)piperidine-4-carboxamide formate]	6.00 to 7.00	< 6.00	< 6.00	> 1
CN1C[C@@H](N2CCC(C(=O)NCCOc3ccc4c(c3)C(=O)N(C3CCC(=O)NC3=O)C4=O)CC2)C[C@H]1COc1nc(N2CC3CCC(C2)N3)c2cnc(-c3cccc4cccc(Cl)c34)c(F)c2n1 (stereo partly drawn) [Compound 12, 1-((3S,5S)-5-(((4-(3,8-diazabicyclo[3.2.1]octan-3-yl)-7-(8-chloronaphthalen-1-yl)-8-fluoropyrido[4,3-d]pyrimidin-2-yl)oxy)methyl)-1-methylpyrrolidin-3-yl)-N-(2-((2-(2,6-dioxopiperidin-3-yl)-1,3-dioxoisoindolin-5-yl)oxy)ethyl)piperidine-4-carboxamide hydrochloride]	6.00 to 7.00	< 6.00	< 6.00	> 1
C#Cc1cccc2cccc(-c3ncc4c(N5CC6CCC(C5)N6)nc(OC[C@@H]5CC[C@H](CN6CCN(CC7CCN(c8ccc9c(c8)C(=O)N(C8CCC(=O)NC8=O)C9=O)CC7)CC6)N5C)nc4c3F)c12 (stereo partly drawn) [Compound 13, 5-(4-((4-(((2R,5S)-5-(((4-(3,8-diazabicyclo[3.2.1]octan-3-yl)-7-(8-ethynylnaphthalen-1-yl)-8-fluoropyrido[4,3-d]pyrimidin-2-yl)oxy)methyl)-1-methylpyrrolidin-2-yl)methyl)piperazin-1-yl)methyl)piperidin-1-yl)-2-(2,6-dioxopiperidin-3-yl)isoindoline-1,3-dione hydrochloride]	> 7.00	< 6.00	< 6.00	0.1 to 1
C#Cc1cccc2cccc(-c3ncc4c(N5CC6CCC(C5)N6)nc(OC[C@@H]5CC[C@H](CN6CCN(CC7CCN(c8cccc9c8C(=O)N(C8CCC(=O)NC8=O)C9=O)CC7)CC6)N5C)nc4c3F)c12 (stereo partly drawn) [Compound 14, 4-(4-((4-(((2R,5S)-5-(((4-(3,8-diazabicyclo[3.2.1]octan-3-yl)-7-(8-ethynylnaphthalen-1-yl)-8-fluoropyrido[4,3-d]pyrimidin-2-yl)oxy)methyl)-1-methylpyrrolidin-2-yl)methyl)piperazin-1-yl)methyl)piperidin-1-yl)-2-(2,6-dioxopiperidin-3-yl)isoindoline-1,3-dione]	> 7.00	6.00 to 7.00	< 6.00	0.1 to 1
C#Cc1cccc2cccc(-c3ncc4c(N5CC6CCC(C5)N6)nc(OCCN5CCN(C(=O)C6CCN(c7ccc8c(c7)CN(C7CCC(=O)NC7=O)C8=O)CC6)CC5)nc4c3F)c12 (stereo not drawn) [Compound 17, 3-(5-(4-(4-(2-((4-(3,8-diazabicyclo[3.2.1]octan-3-yl)-7-(8-ethynylnaphthalen-1-yl)-8-fluoropyrido[4,3-d]pyrimidin-2-yl)oxy)ethyl)piperazine-1-carbonyl)piperidin-1-yl)-1-oxoisoindolin-2-yl)piperidine-2,6-dione formate]	> 7.00	< 6.00	< 6.00	> 1
CN1C[C@@H](N2CCC(C(=O)N3CCN(c4ccc5c(c4)C(=O)N(C4CCC(=O)NC4=O)C5=O)CC3)CC2)C[C@H]1COc1nc(N2CC3CCC(C2)N3)c2cnc(-c3cccc4ccccc34)c(F)c2n1 (stereo partly drawn) [Compound 19, 5-(4-(1-((3S,5S)-5-(((4-(3,8-diazabicyclo[3.2.1]octan-3-yl)-8-fluoro-7-(naphthalen-1-yl)pyrido[4,3-d]pyrimidin-2-yl)oxy)methyl)-1-methylpyrrolidin-3-yl)piperidine-4-carbonyl)piperazin-1-yl)-2-(2,6-dioxopiperidin-3-yl)isoindoline-1,3-dione formate]	6.00 to 7.00	< 6.00	< 6.00	> 1
